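96-well plates; 48 h exposure; 5 concentrations. Endpoints by linear interpolation between flanking doses. Not reached: highest tested concentration assigned. Abbreviation: GI50, concentration required for 50% inhibition of growth. TGI: total growth inhibition.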
What was measured:
Assay in all cases: NCI anticancer screen, dose series, 48 h
UACC-257 melanoma = test system: UACC-257 melanoma
HT29 colon = test system: HT29 colon
A549 NSCLC = test system: A549 NSCLC
U251 CNS = test system: U251 CNS
SK-MEL-2 melanoma = test system: SK-MEL-2 melanoma
UO-31 renal = test system: UO-31 renal
UACC-62 melanoma = test system: UACC-62 melanoma
SK-MEL-28 melanoma = test system: SK-MEL-28 melanoma
HOP-62 NSCLC = test system: HOP-62 NSCLC
KM12 colon = test system: KM12 colon
OVCAR-4 ovarian = test system: OVCAR-4 ovarian
CAKI-1 renal = test system: CAKI-1 renal
786-0 renal = test system: 786-0 renal
COLO 205 colon = test system: COLO 205 colon
MOLT-4 leukemia = test system: MOLT-4 leukemia
M14 melanoma = test system: M14 melanoma
NCI-H23 lung = test system: NCI-H23 lung
HCT-15 colon = test system: HCT-15 colon
EKVX NSCLC = test system: EKVX NSCLC
RPMI-8226 leukemia = test system: RPMI-8226 leukemia
K-562 leukemia = test system: K-562 leukemia
SW-620 colon = test system: SW-620 colon
NCI-H226 lung = test system: NCI-H226 lung
TK-10 renal = test system: TK-10 renal
MDA-MB-231 breast = test system: MDA-MB-231 breast
SNB-75 CNS = test system: SNB-75 CNS
LOX IMVI melanoma = test system: LOX IMVI melanoma
HS 578T breast = test system: HS 578T breast
NCI/ADR-RES ovarian = test system: NCI/ADR-RES ovarian
MCF7 breast = test system: MCF7 breast
NCI-H522 lung = test system: NCI-H522 lung
MALME-3M melanoma = test system: MALME-3M melanoma
HCT-116 colon = test system: HCT-116 colon
CCRF-CEM leukemia = test system: CCRF-CEM leukemia
HL-60(TB) leukemia = test system: HL-60(TB) leukemia
OVCAR-5 ovarian = test system: OVCAR-5 ovarian
PC-3 prostate = test system: PC-3 prostate
HCC-2998 colon = test system: HCC-2998 colon
T-47D breast = test system: T-47D breast
SF-295 CNS = test system: SF-295 CNS
SK-MEL-5 melanoma = test system: SK-MEL-5 melanoma
NCI-H460 lung = test system: NCI-H460 lung
OVCAR-8 ovarian = test system: OVCAR-8 ovarian
SR leukemia = test system: SR leukemia
SK-OV-3 ovarian = test system: SK-OV-3 ovarian
SF-268 CNS = test system: SF-268 CNS
DU-145 prostate = test system: DU-145 prostate
SF-539 CNS = test system: SF-539 CNS
ACHN renal = test system: ACHN renal
A498 renal = test system: A498 renal
SN12C renal = test system: SN12C renal
IGROV1 ovarian = test system: IGROV1 ovarian
MDA-MB-435 = test system: MDA-MB-435
SNB-19 CNS = test system: SNB-19 CNS
OVCAR-3 ovarian = test system: OVCAR-3 ovarian
BT-549 breast = test system: BT-549 breast

## COc1cc(NC(=O)c2ccc(C(F)(F)F)nc2Nc2ccc(Cl)cc2C)cc(OC)c1OC
UACC-257 melanoma
  GI50: 3.4 µM
  TGI: 19.3 µM
HT29 colon
  GI50: 4.92 µM
  TGI: 19.3 µM
A549 NSCLC
  GI50: 5.82 µM
  TGI: > 100 µM
U251 CNS
  GI50: 4.86 µM
  TGI: 17.5 µM
SK-MEL-2 melanoma
  GI50: 10.3 µM
  TGI: 28.3 µM
UO-31 renal
  GI50: 2.68 µM
  TGI: 17.9 µM
UACC-62 melanoma
  GI50: 3.05 µM
  TGI: 15.9 µM
SK-MEL-28 melanoma
  GI50: 4.4 µM
  TGI: 26.4 µM
HOP-62 NSCLC
  GI50: 5.95 µM
  TGI: 18.2 µM
KM12 colon
  GI50: 1.55 µM
  TGI: 13.2 µM
OVCAR-4 ovarian
  GI50: 2.77 µM
  TGI: 25.3 µM
CAKI-1 renal
  GI50: 3.36 µM
  TGI: 9.85 µM
786-0 renal
  GI50: 5.56 µM
  TGI: 22.4 µM
COLO 205 colon
  GI50: 4.06 µM
  TGI: 15.5 µM
MOLT-4 leukemia
  GI50: 2.54 µM
  TGI: 18.2 µM
M14 melanoma
  GI50: 4.14 µM
  TGI: 18.9 µM
NCI-H23 lung
  GI50: 2.2 µM
  TGI: 10.6 µM
HCT-15 colon
  GI50: 4.35 µM
  TGI: 21.2 µM
EKVX NSCLC
  GI50: 6.34 µM
  TGI: > 100 µM
RPMI-8226 leukemia
  GI50: 2.96 µM
  TGI: 17.5 µM
K-562 leukemia
  GI50: 3.01 µM
  TGI: > 100 µM
SW-620 colon
  GI50: 5.92 µM
  TGI: 18.8 µM
NCI-H226 lung
  GI50: 10.8 µM
  TGI: 31.7 µM
TK-10 renal
  GI50: 5.83 µM
  TGI: 29.1 µM
MDA-MB-231 breast
  GI50: 3.73 µM
  TGI: 14.8 µM
SNB-75 CNS
  GI50: 2.78 µM
  TGI: 18.5 µM
LOX IMVI melanoma
  GI50: 3.23 µM
  TGI: 13.5 µM
HS 578T breast
  GI50: 4.65 µM
  TGI: 38.7 µM
NCI/ADR-RES ovarian
  GI50: 3.62 µM
  TGI: 17.1 µM
MCF7 breast
  GI50: 2.39 µM
  TGI: 16.2 µM
NCI-H522 lung
  GI50: 1.61 µM
  TGI: 14.4 µM
MALME-3M melanoma
  GI50: 4.94 µM
  TGI: 24 µM
HCT-116 colon
  GI50: 3.14 µM
  TGI: 13.4 µM
CCRF-CEM leukemia
  GI50: 1.58 µM
  TGI: 29.5 µM
HL-60(TB) leukemia
  GI50: 1.76 µM
  TGI: 15.2 µM
OVCAR-5 ovarian
  GI50: 10.8 µM
  TGI: 27.7 µM
PC-3 prostate
  GI50: 1.86 µM
  TGI: 10.5 µM
HCC-2998 colon
  GI50: 1.89 µM
  TGI: 5.61 µM
T-47D breast
  GI50: 2.47 µM
  TGI: 21.3 µM
SF-295 CNS
  GI50: 5.36 µM
  TGI: 23.1 µM
SK-MEL-5 melanoma
  GI50: 2.95 µM
  TGI: 14.9 µM
NCI-H460 lung
  GI50: 3.3 µM
  TGI: 12.9 µM
OVCAR-8 ovarian
  GI50: 6.19 µM
  TGI: > 100 µM
SR leukemia
  GI50: 2.77 µM
  TGI: 13.5 µM
SK-OV-3 ovarian
  GI50: 5.15 µM
  TGI: 36.1 µM
SF-268 CNS
  GI50: 6.67 µM
  TGI: 28.9 µM
DU-145 prostate
  GI50: 11.7 µM
  TGI: 57.3 µM
SF-539 CNS
  GI50: 10.6 µM
  TGI: > 100 µM
ACHN renal
  GI50: 3.74 µM
  TGI: 35.5 µM
A498 renal
  GI50: 3.9 µM
  TGI: 23.8 µM
SN12C renal
  GI50: 6.75 µM
  TGI: 31 µM
IGROV1 ovarian
  GI50: 0.958 µM
  TGI: 23 µM
MDA-MB-435
  GI50: 4.19 µM
  TGI: 21.3 µM
SNB-19 CNS
  GI50: 5.77 µM
  TGI: 48.9 µM
OVCAR-3 ovarian
  GI50: 2.41 µM
  TGI: 13.3 µM
BT-549 breast
  GI50: 10.7 µM
  TGI: 26.6 µM

Reference: PubChem BioAssay (NCI)
